In the assay the target is ΔNFun30 (printed ⊗NFun30), Fun30 from C. albicans, orf19.6291 (Candida albicans, UniProt A0A1D8PTJ0). The experiment in a line: biochemical.

In general, Kd refers to the constant that tells how readily two partners part at equilibrium. Low readings indicate tighter binding, high ones weaker binding.

As to `Nc1ncnc2c1ncn2[C@@H]1O[C@H](COP(=O)(O)OP(=O)(O)OP(=O)(O)O)[C@@H](O)[C@H]1O` [ATP], the affinity, expressed as Kd, was 1.32 ± 0.03 µM.

Values taken from paper doi:10.1101/2021.07.22.453354v1 (biorxiv, 2021).
